Converted amounts (≈) assume the structure as drawn. The source made the active and inactive calls. No cut-off for these calls is given here.
Columns and labels:
LX-2 [1] = experiment: Anti-fibrotic activity against human LX2 cells assessed as reduction in TGF-1beta-induced alpha-SMA mRNA expression at 0.25 to 1 ug/ml by qPCR analysis; type: functional, cell-based; conditions: dose 0.25-1 µg/ml
[2] = Anticancer activity against human nasopharyngeal carcinoma cells measured upto 72 hrs by MTT assay; type: functional; conditions: Nasopharyngeal carcinoma cell line
Influenza A virus = experiment: Antiviral activity against influenza A virus infected in MDCK cells assessed as reduction in plaque number measured after 48 to 72 hrs; type: functional, organism-based
LX-2 [3] = experiment: Anti-fibrotic activity against human LX2 cells assessed as reduction in TGF-1beta-induced collagen mRNA expression at 0.25 to 1 ug/ml by qPCR analysis; type: functional, cell-based; conditions: dose 0.25-1 µg/ml
[4] = target: Signal transducer and activator of transcription 3 (Homo sapiens) (UniProt P40763); experiment: Inhibition of STAT3 in human LX2 cells assessed as reduction in TGF-1beta-induced STAT3 phosphorylation at 0.25 to 1 ug/ml by Western blot analysis; type: cell-based; conditions: dose 0.25-1 µg/ml
Chain of Signal transducer and activator of transcription 3 (Homo sapiens) (P40763 whole entry): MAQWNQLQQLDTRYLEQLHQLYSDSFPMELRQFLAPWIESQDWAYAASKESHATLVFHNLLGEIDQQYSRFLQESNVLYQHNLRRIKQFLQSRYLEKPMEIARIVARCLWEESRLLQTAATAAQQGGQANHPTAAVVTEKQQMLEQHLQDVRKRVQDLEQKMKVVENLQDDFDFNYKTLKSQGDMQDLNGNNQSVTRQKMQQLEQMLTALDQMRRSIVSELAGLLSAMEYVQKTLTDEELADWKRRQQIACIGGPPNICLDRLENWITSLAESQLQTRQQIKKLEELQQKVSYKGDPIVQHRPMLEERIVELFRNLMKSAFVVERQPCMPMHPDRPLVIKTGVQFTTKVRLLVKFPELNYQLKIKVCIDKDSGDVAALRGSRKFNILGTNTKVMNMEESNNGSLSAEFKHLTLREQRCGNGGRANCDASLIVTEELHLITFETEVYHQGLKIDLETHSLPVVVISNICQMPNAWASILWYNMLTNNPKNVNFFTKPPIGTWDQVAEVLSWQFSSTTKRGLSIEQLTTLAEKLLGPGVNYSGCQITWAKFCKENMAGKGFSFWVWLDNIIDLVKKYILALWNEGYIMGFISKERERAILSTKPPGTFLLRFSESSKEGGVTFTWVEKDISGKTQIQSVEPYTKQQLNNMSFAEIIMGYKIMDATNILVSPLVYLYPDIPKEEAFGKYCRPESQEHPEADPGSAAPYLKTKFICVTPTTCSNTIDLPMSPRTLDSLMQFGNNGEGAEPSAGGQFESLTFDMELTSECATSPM

LX-2 [5] = experiment: Anti-fibrotic activity against human LX2 cells assessed as reduction in TGF-1beta-induced fibronectin mRNA expression at 0.25 to 1 ug/ml by qPCR analysis; type: functional, cell-based; conditions: dose 0.25-1 µg/ml
[6] = target: Signal transducer and activator of transcription 3 (Homo sapiens) (UniProt P40763); experiment: Inhibition of STAT3 in human LX2 cells assessed as reduction in TGF-1beta-induced CTGF expression at 0.25 to 1 ug/ml by Western blot analysis; type: cell-based; conditions: dose 0.25-1 µg/ml

Which results are given for `C/C=C(/C)C(=O)O[C@H]1[C@@H]2[C@H](C)C(=O)O[C@@H]2C[C@@H](C)[C@@H]2C=CC(=O)[C@]21C` [BREVILIN A]?
Activity (LX-2 [1]): Active; IC50 [2]: 3.46 µg/mL (≈ 9.99 µM); EC50 (Influenza A virus): 1.02 µg/mL (≈ 2.94 µM); Activity (LX-2 [3]): Active; inhibition [4]: Active; Activity (LX-2 [5]): Active; inhibition [6]: Active

Source: ChEMBL document CHEMBL4814041, “Anti-fibrotic effects of brevilin A in hepatic fibrosis via inhibiting the STAT3 signaling pathway” (Bioorg Med Chem Lett, 2021)
